The target of this experiment is T1, hCA IX (Homo sapiens, UniProt Q16790).
T1 construct: gene CA9
Briefly: stopped-flow CO2 hydration. Type of experiment: biochemical. The source says: stopped-flow CO2 hydration on hCA IX

Each structure is given as a SMILES string.

Experimental findings from PMC8942523, “The three-tails approach as a new strategy to improve selectivity of action of sulphonamide inhibitors against tumour-associated carbonic anhydrase IX and XII” (Journal of Enzyme Inhibition and Medicinal Chemistry, 2022) are described below.

On to `CCCCCN(CCCCC)CC(=O)N(CCc1ccc(S(N)(=O)=O)cc1)Cc1ccccc1` [compound 21, 21], for which the Ki (usually a dissociation constant, usually derived from enzyme kinetics or from competition with a known ligand) amounted to 48.5 nM.

Compound `NS(=O)(=O)c1ccc(CCN(CCc2ccccc2)C(=O)CN(CCC(=O)O)CCc2ccccc2)cc1` [compound 45, 45] gave a Ki of 7.5 nM. Compared with the last compound, the Ki is about 6.5-fold lower.

`CCCCCCN(CCCCCC)CC(=O)N(CCC#N)CCc1ccc(S(N)(=O)=O)cc1` [compound 33, 33]: the Ki stood at 154 nM.

For `NS(=O)(=O)c1ccc(CCN(Cc2ccccc2)C(=O)CCN(Cc2ccccc2)Cc2ccccc2)cc1` [compound 26, 26], the Ki came to 106 nM.

As for `CCCCCCCCN(CCCCCCCC)CCC(=O)N(CCc1ccc(S(N)(=O)=O)cc1)Cc1ccccc1` [compound 29, 29], the inhibition constant (Ki) was 147 nM.

As for `CCCCCCCC/C=C\CCCCCCCCNC(=O)CCN(CCc1ccccc1)CC(=O)N(CCc1ccc(S(N)(=O)=O)cc1)Cc1ccco1` [compound 50, 50], the affinity, expressed as Ki, was 61.1 nM.

The compound `NCCCN(CCc1ccccc1)CC(=O)N(CCc1ccc(S(N)(=O)=O)cc1)Cc1ccc2ccccc2c1` [compound 43, 43] came in with an inhibitory constant (Ki) of 34.3 nM.

In the case of `NCCCN(CCc1ccccc1)CC(=O)N(CCc1ccc(S(N)(=O)=O)cc1)Cc1ccco1` [compound 41, 41], the affinity corresponds to a Ki of 11.1 nM.

`CCCCCN(CCCCC)CCC(=O)N(CCc1ccc(S(N)(=O)=O)cc1)Cc1ccccc1` [compound 27, 27] came in with an inhibition constant Ki of 134 nM.

Consider `NCCCN(CCc1ccccc1)CC(=O)N(CCc1ccc(S(N)(=O)=O)cc1)Cc1ccc(F)cc1` [compound 42, 42], for which the Ki was 4.8 nM.

`CCCCCCCCN(CCCCCCCC)CC(=O)N(CCc1ccc(S(N)(=O)=O)cc1)Cc1ccccc1` [compound 23, 23] showed an inhibition constant Ki of 271 nM.

`N#CCCN(CCc1ccccc1)CC(=O)N(CCc1ccc(S(N)(=O)=O)cc1)Cc1ccc([N+](=O)[O-])cc1` [compound 38, 38]: the Ki is 202 nM. This Ki and that of the compound before are within 1.5-fold of each other.

`NS(=O)(=O)c1ccc(CCN(Cc2ccco2)C(=O)CN(CCC(=O)O)CCc2ccccc2)cc1` [compound 46, 46] yielded a Ki of 1.2 nM.

`CCCCCCN(CCCCCC)CC(=O)N(CCC(=O)O)CCc1ccc(S(N)(=O)=O)cc1` [compound 49, 49]: the affinity, expressed as Ki, was 68.3 nM.

On to `N#CCCN(CCc1ccccc1)CC(=O)N(CCc1ccc(S(N)(=O)=O)cc1)Cc1ccc(F)cc1` [compound 36, 36], for which affinity was put at a Ki of 3 nM.

`N#CCCN(CCc1ccccc1)CC(=O)N(CCc1ccccc1)CCc1ccc(S(N)(=O)=O)cc1` [compound 34, 34]: the Ki was found to be 32.3 nM.

`N#CCCN(CCc1ccccc1)CC(=O)N(CCc1ccc(S(N)(=O)=O)cc1)Cc1ccc2ccccc2c1` [compound 37, 37]: the Ki was found to be 151 nM.

In turn, `NCCCN(CCc1ccccc1)CC(=O)N(CCc1ccccc1)CCc1ccc(S(N)(=O)=O)cc1` [compound 40, 40] showed an inhibition constant Ki of 4 nM.

Regarding `NS(=O)(=O)c1ccc(CCN(Cc2ccccc2)C(=O)CN(Cc2ccccc2)Cc2ccccc2)cc1` [compound 20, 20], affinity was put at a Ki of 234 nM.

The compound `N#CCCN(CCc1ccccc1)CC(=O)N(CCc1ccc(S(N)(=O)=O)cc1)Cc1ccco1` [compound 35, 35] gave a Ki of 95.1 nM.

In turn, `CCCCCCN(CCCCCC)CC(=O)N(CCc1ccc(S(N)(=O)=O)cc1)Cc1ccccc1` [compound 22, 22] gave a Ki of 123 nM.

`NS(=O)(=O)c1ccc(CCN(Cc2ccc3ccccc3c2)C(=O)CN(CCC(=O)O)CCc2ccccc2)cc1` [compound 48, 48] came in with a Ki of 22.1 nM.

Regarding `CCCCCCN(CCCCCC)CCC(=O)N(CCc1ccccc1)CCc1ccc(S(N)(=O)=O)cc1` [compound 30, 30], the Ki is 42.9 nM.

With `CCCCCCN(CCCCCC)CC(=O)N(CCc1ccc(S(N)(=O)=O)cc1)Cc1ccc2ccccc2c1` [compound 32, 32], the affinity, expressed as Ki, was 296 nM. This Ki is about 6.9-fold higher than that of the compound before.

`CCN(CC)CCC(=O)N(CCc1ccc(S(N)(=O)=O)cc1)Cc1ccccc1` [compound 24, 24]: the inhibition constant Ki came to 31.1 nM.

Compound `CCCCCCN(CCCCCC)CC(=O)N(CCCN)CCc1ccc(S(N)(=O)=O)cc1` [compound 44, 44] yielded a Ki of 116 nM.

The compound `CCN(CC)CC(=O)N(CCc1ccc(S(N)(=O)=O)cc1)Cc1ccccc1` [compound 18, 18] displayed an inhibitory constant (Ki) of 30.6 nM.

On to `N#CCCN(CCc1ccccc1)CC(=O)N(CCC#N)CCc1ccc(S(N)(=O)=O)cc1` [compound 39, 39], for which the affinity, expressed as Ki, was 19.3 nM.

Regarding `CCCCCCN(CCCCCC)CCC(=O)N(CCc1ccc(S(N)(=O)=O)cc1)Cc1ccccc1` [compound 28, 28], the inhibitory constant (Ki) is 94.2 nM. Compared with the last compound, the Ki is about 4.9-fold higher.

On to `CCN(CCC(=O)N(CCc1ccc(S(N)(=O)=O)cc1)Cc1ccccc1)Cc1ccccc1` [compound 25, 25], for which the Ki was 166 nM.

In turn, `CCN(CC(=O)N(CCc1ccc(S(N)(=O)=O)cc1)Cc1ccccc1)Cc1ccccc1` [compound 19, 19] gave a Ki of 119 nM.

The compound `NS(=O)(=O)c1ccc(CCN(Cc2ccc(F)cc2)C(=O)CN(CCC(=O)O)CCc2ccccc2)cc1` [compound 47, 47] had an inhibition constant Ki of 11.1 nM.
